“And” between values parts separate entries of the source, which are not always exact repeats. Identical values can stand only once. Like-named read-outs stand apart in the source and are kept apart here. Blank lines part the entries; values can stand above or below the compound they belong to.
Experiments:
BRD4 = BRD4 (Homo sapiens (Human), UniProt O60885); test: Differential Scanning Fluorimetry (DSF), stability of BRD4 upon ligand binding; details: for DSF ΔTm / IC50: Table 1; for IC50: estimated from DSF; for DSF: BRD4 ΔTm: 100 μM protein, 4 μM compound and 2% DMSO, Table 4
MM.1S cells = test: Cellular IC50 (cell survival, MTT), MM.1S; assay type: cell-based
From the text: Increased anti-proliferative effects are correlated with an early, strong reduction of both pSTAT2 and c-Myc levels. The inhibitors highlighted are the most promising equipotent dual BET-JAK2 inhibitors of this series.

MV4-11 AML cells [1] = details: literature; read-out: IC50, inhibition of proliferation of MV4-11 AML cells; cited from earlier work
c-Myc = details: literature; cited from earlier work
Solubility in PBS buffer = assay type: physicochemical
UKE-1 = test: Cellular IC50, UKE-1; assay type: cell-based; details: UKE1
MV4-11 AML cells [2] = test: Cellular IC50, MV-4-11; assay type: cell-based; details: Homo sapiens
Experimental: Cellular activity of promising compounds is assessed using MM.1S and MV4-11 AML cells using c-Myc levels as biomarker (6-12 hr treatment) and antiproliferative activity (48-72 hr treatment) as described (Ciceri et al., Dual kinase-bromodomain inhibitors for rationally designed polypharmacology. Nat Chem Biol 2014).

Saos-2 = test: Cellular IC50, Saos-2; assay type: cell-based; details: Homo sapiens
HEK293 = test: Cellular IC50, HEK293; assay type: cell-based; details: Homo sapiens
JAK2 = JAK2 (Homo sapiens (Human), UniProt O60674); test: HotSpot Kinase assay (Reaction Biology); assay type: biochemical; details: Reaction Biology data
BRD4-2 = BRD4-2 (Homo sapiens (Human), UniProt O60885); test: Alpha Screen (Reaction Biology); assay type: binding; details: Reaction Biology data; value in parentheses
BRD4-1 = BRD4-1 (Homo sapiens (Human), UniProt O60885); test: Alpha Screen (Reaction Biology); assay type: binding; details: Reaction Biology data
BRDT-1 = BRDT-1 (Homo sapiens (Human), UniProt Q58F21); test: Alpha Screen (Reaction Biology); assay type: binding; details: Reaction Biology data
[3] = Homo sapiens, MM1.S, read-out: Cellular IC50 MM.1S

JAK2, sequence (O60674 whole entry): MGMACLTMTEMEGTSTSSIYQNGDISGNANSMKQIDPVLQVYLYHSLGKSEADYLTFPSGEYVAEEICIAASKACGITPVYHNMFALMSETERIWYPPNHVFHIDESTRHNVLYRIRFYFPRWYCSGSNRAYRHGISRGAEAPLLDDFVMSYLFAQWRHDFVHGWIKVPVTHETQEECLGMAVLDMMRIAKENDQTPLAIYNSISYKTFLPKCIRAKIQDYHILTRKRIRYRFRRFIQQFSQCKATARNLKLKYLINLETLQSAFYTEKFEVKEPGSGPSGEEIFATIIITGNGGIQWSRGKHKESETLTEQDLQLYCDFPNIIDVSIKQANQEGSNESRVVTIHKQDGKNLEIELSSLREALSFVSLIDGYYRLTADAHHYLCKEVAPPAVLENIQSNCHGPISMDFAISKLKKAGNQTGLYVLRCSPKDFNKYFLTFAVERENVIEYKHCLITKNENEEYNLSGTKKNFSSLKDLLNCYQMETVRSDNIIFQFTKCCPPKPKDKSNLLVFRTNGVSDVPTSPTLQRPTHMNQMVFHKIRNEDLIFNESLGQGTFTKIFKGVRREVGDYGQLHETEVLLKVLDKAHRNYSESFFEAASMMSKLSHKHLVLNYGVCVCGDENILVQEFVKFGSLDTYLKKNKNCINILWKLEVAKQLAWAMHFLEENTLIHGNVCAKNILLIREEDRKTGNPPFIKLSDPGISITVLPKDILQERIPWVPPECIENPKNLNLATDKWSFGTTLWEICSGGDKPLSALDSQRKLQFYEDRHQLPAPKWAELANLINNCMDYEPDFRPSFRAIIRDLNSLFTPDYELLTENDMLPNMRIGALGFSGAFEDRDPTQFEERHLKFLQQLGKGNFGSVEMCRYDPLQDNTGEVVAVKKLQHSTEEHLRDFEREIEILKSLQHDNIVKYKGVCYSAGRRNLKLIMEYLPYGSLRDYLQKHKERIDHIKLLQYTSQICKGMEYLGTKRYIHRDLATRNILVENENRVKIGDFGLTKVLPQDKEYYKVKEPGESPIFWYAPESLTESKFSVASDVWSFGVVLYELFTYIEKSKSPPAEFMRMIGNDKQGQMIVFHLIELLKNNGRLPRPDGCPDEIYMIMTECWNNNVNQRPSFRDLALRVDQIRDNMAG

DSF ΔTm (BRD4): 12.6 ± 0.069 °C
SMILES: Cc1cnc(Nc2ccc(N3CCN(C)CC3)c(F)c2)nc1Nc1ccc(Cl)c(NS(=O)(=O)C(C)(C)C)c1 [drawing 168]
IC50 (MM.1S cells; read-out: MM.1S IC50): 64 nM and 66 nM

DSF ΔTm (BRD4): 2.9 ± 0.084 °C
IC50 (BRD4): 2300 nM
SMILES: CCCN(C)c1ccc(Nc2nc3c(c(Nc4cccc(S(N)(=O)=O)c4)n2)COC3)cc1

IC50 (BRD4): > 20000 nM
SMILES: CCOC(=O)c1cnc(Nc2ccc(N3CCN(C)CC3)cc2)nc1Nc1cccc(S(=O)(=O)NC(C)(C)C)c1

SMILES: Cc1cnc(Nc2ccc(OCCN3CCCC3)cc2)nc1Nc1cccc(S(=O)(=O)NC(C)(C)C)c1 [TG101348]
IC50 (MV4-11 AML cells [1]): 79 nM
downregulation of c-Myc in MM.1S cells (c-Myc): strong downregulation of c-Myc

SMILES: Cc1cnc(Nc2ccc(N3CCN(C)CC3)cc2)nc1Nc1cccc(S(=O)(=O)NC(C)(C)C)c1 [TG101209, reference compound]
DSF ΔTm (BRD4): 6.83 ± 0.129 °C and 7.55 ± 0.154 °C
downregulation of c-Myc in MM.1S cells (c-Myc): strong downregulation of c-Myc

Solubility (Solubility in PBS buffer; in 1 mL PBS buffer (15% HPCD)): > 14.4 mg/mL
Solubility (Solubility in PBS buffer; in 1 mL PBS buffer (~9.3% DMSO)): 0.416 mg
SMILES: Cc1cnc(Nc2ccc(N3CCN(C)CC3)cc2)nc1Nc1ccc(Cl)c(NS(=O)(=O)C(C)(C)C)c1 [SG3-014B2.MSA]

IC50 (UKE-1): 200 nM
IC50 (MV4-11 AML cells [2]): 26.8 nM
DSF: BRD4 ΔTm (BRD4): 11.2 ± 0.15 °C
IC50 (Saos-2): 133 nM
SMILES: Cc1cnc(Nc2ccc(N3CCN(C)CC3)c(F)c2)nc1Nc1cccc(NS(=O)(=O)C(C)(C)C)c1 [drawing 231]
IC50 (MM.1S cells; [3]): 146 nM

SMILES: CC[C@@H]1C(=O)N(C)c2cnc(Nc3ccc(C(=O)NC4CCN(C)CC4)cc3OC)nc2N1C1CCCC1 [BI2536]
downregulation of c-Myc in MM.1S cells (c-Myc): strong downregulation of c-Myc

DSF ΔTm (BRD4): 5.3 ± 0.064 °C
IC50 (BRD4): 370 nM
SMILES: Cc1nc(Nc2ccc(N3CCN(C)CC3)cc2)nc(Nc2cccc(S(=O)(=O)NC(C)C)c2)c1C
IC50 (HEK293): 120000 nM

IC50 (UKE-1): 294 nM
IC50 (MV4-11 AML cells [2]): 53.2 nM
DSF: BRD4 ΔTm (BRD4): 12.6 ± 0.06 °C
IC50 (JAK2): 3.36 nM
IC50 (Saos-2): 320 nM
SMILES: Cc1cnc(Nc2ccc(N3CCN(C)CC3)c(F)c2)nc1Nc1ccc(Cl)c(NS(=O)(=O)C(C)(C)C)c1 [drawing 230]
IC50 (MM.1S cells; [3]): 66 nM

IC50 (BRD4-2): 27.3 nM
IC50 (BRD4-1): 25 nM
SMILES: Cc1cnc(Nc2ccc(N3CCN(C)CC3)cc2)nc1Nc1ccc(Cl)c(NS(=O)(=O)C(C)(C)C)c1 [drawing 232]
IC50 (MM.1S cells; [3]): 142 nM

IC50 (UKE-1): 225 nM
IC50 (MV4-11 AML cells [2]): 38.3 nM
IC50 (BRDT-1): 22.5 nM
IC50 (BRD4-1): 9.55 nM
SMILES: Cc1cnc(Nc2ccc(C(=O)NC3CCN(C)CC3)c(F)c2)nc1Nc1ccc(Cl)c(NS(=O)(=O)C(C)(C)C)c1

SMILES: Cc1cnc(Nc2ccc(N3CCN(C)CC3)cc2)nc1Nc1ccc(Cl)c(NS(=O)(=O)C(C)(C)C)c1 [drawing 146]
IC50 (MM.1S cells; read-out: MM.1S IC50): 142 nM

IC50 (MV4-11 AML cells [2]): 56.7 nM
IC50 (BRD4-2): 23.6 nM
SMILES: Cc1cnc(Nc2ccc(N3CCN(C)CC3)cc2)nc1Nc1cccc(NS(=O)(=O)C(C)(C)C)c1
IC50 (MM.1S cells; [3]): 399 nM

DSF ΔTm (BRD4): 11.2 ± 0.15 °C
SMILES: Cc1cnc(Nc2ccc(N3CCN(C)CC3)c(F)c2)nc1Nc1cccc(NS(=O)(=O)C(C)(C)C)c1 [drawing 167]
IC50 (MM.1S cells; read-out: MM.1S IC50): 146 nM
